We go through 1 molecule from patent publication US20250235499A1, “ANTI-OVARIAN CANCER PHARMACEUTICAL COMPOSITION AND ACTION TARGET THEREOF” (Zhejiang Chinese Medical University, priority 2024, published 2025).

The test system of one assay is Hey ovarian cancer cell. In words: Tumor bearing nude mouse model (tumor volume, tumor inhibition rate, body weight). Conditions: intraperitoneal, 15 days; DDP 3 mg/kg, CA 80 mg/kg, BDMC 5 mg/kg; compared to the Control group, P<0.01. The assay is classed as in vivo, BALB/c nude mice. As to the method: Newly housed BALB/c nude mice were placed in an SPF grade feeding room laminar flow rack for adaptive feeding for one week, and the experimental animal status was adjusted. A Hey ovarian cancer cell was cultivated to the logarithmic growth stage, and the original culture medium was discarded. The Hey ovarian cancer cell was washed with PBS buffer, added with 0.1% trypsin digestion for digestion, added with the corresponding culture medium to terminate digestion, centrifuged at 1000 rpm for 3 minutes, and added with PBS buffer to prepare a cell suspension. The cell was counted using a hemocytometer, and the cell concentration was quantified to 5×10^7 cells/mL. After grasping and fixing the nude mouse with the left hand, and the skin at a needle inserting site on the right forelimb axilla of the nude mouse was disinfected with a 75% alcohol cotton ball. A disposable 1 mL syringe was used to inject approximately 100 μL of cell suspension subcutaneously into the posterior axilla of the right forelimb in an oblique stabbing inserting needle mode, so that each nude mouse was injected with approximately 5×10^6 cells. After vaccination, the needle inserting site was gently pressed with a cotton ball to prevent the cell suspension from leaking from a needle hole. The growth status of tumors at the vaccination site of nude mice was observed daily. After about one week, if the tumors at the vaccination site were compacted and appeared light red in color, it could be considered as successful tumor growth. At this time, the nude mice were randomly divided into 5 groups, a Control group intraperitoneally injected with physiological saline for 1 day each time; a DDP group intraperitoneally injected with cisplatin, 3 mg/kg, 3 d/time; a CA group intraperitoneally injected with CA, 80 mg/kg, 1 d/time; a BDMC group intraperitoneally injected with BDMC, 5 mg/kg, 1 d/time; a CA+BDMC group intraperitoneally injected with CA 80 mg/kg+BDMC 5 mg/kg, 1 d/time, 8 animals per group. A tumor length (L) and a […] were measured with a vernier caliper every 3 days to calculate a tumor volume. After 15 days of administration, nude mice were euthanized by dislocation of cervical vertebra, and tumor tissue was dissected. The tumor weight was weighed to calculate the tumor inhibition rate. The tumor tissue was stored in two batches at −80° C. and fixed with 4% paraformaldehyde.

The subject of assay [1] is MCM2, CDK4, Cyclin D1, P21. In words: Western Blot of tumor body cyclin in tumor bearing nude mice. Type of assay: in vivo, BALB/c nude mice. Particulars: nude mouse tumor body, compared to the Control group. From the text:
The expression of nude mice tumor body cyclin and EMT related proteins in tumor bearing nude mice after intervention with DDP, CA, BDMC, and combined administration was shown in FIG. 29. In the figure, 1 represented the Control group; 2 represented the DDP group; 3 represented the CA group; 4 represented the BDMC group; and 5 represented the CA+BDMC group.

With `N.N.[Cl][Pt][Cl]` [DDP, cisplatin, reference compound], in the assay with Hey ovarian cancer cell, the tumor inhibition rate entry is recorded as “significantly increased” and the tumor volume size result is given as “significantly reduced”. Moreover, in assay [1], the “expression of CDK4 protein (Western Blot)” value is “significantly decreased”.
